Laboratory results reported in US20110033393A1, “Hydrazone Compounds and Their Use” (priority 2009, published 2011).

Target: T1, human TRPM5 ion channel (Homo sapiens, UniProt Q9NZQ8)
T1 sequence (Q9NZQ8 1-1165): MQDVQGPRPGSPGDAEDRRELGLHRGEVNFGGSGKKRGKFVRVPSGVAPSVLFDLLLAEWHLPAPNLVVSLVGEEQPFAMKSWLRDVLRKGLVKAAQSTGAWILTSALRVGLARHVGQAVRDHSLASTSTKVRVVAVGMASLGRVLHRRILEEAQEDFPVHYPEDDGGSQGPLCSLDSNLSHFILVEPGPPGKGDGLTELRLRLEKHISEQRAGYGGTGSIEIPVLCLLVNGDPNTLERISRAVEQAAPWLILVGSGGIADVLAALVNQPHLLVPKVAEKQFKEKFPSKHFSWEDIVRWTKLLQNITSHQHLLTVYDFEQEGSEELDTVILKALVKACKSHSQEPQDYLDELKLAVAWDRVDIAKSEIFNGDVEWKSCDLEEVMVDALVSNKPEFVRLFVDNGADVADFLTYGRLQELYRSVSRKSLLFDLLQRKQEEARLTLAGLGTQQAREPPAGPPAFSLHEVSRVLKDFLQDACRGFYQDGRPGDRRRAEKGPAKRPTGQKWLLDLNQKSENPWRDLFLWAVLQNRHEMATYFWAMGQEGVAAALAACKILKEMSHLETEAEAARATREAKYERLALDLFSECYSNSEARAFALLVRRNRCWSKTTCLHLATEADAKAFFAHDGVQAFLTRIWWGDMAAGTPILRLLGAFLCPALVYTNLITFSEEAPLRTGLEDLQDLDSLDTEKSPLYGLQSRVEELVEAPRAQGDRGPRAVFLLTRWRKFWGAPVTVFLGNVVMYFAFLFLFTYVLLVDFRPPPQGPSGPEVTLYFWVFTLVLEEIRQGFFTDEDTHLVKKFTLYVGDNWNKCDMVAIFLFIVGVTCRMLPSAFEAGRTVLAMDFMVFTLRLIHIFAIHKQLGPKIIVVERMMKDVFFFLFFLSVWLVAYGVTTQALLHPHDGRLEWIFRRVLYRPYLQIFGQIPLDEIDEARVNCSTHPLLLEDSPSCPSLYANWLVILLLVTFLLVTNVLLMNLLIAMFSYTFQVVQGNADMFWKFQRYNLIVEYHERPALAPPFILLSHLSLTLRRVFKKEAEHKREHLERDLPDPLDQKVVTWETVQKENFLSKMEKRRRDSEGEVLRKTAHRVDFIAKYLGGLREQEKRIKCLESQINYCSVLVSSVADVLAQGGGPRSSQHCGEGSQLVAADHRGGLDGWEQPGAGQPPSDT
Assay: FLIPR-based assay for membrane potential and calcium mobilization (TRPM5 inhibiting activity)
Format: cell-based
Details: live cells, 30° C., read-out: hTrpM5 IC50
Protocol: The activity of compounds of the present invention on human TRPM5 ion channel was measured using the FLIPR-based (fluorescent imaging plate reader) assay for membrane potential and calcium mobilization described in U.S. Patent Application Publication No. 2008/0249189 A1 in live cells, wherein the assay is performed at 30° C. Determinations of affinity and efficacy were derived from measurements of TRPM5 activity over a range of compound concentrations. The concentration range was achieved by 10 serial dilutions (either 2-fold or 3-fold decrements) from a maximum concentration of no greater that 100 μM. Curver fitting was performed on the resulting data to yield concentration-effect functions, from which the half-maximal inhibitory concentration (IC50) was derived for all the tested compounds. The IC50 values were considered to be accurate reflections of affinity between the compounds and TRPM5.
Representative compounds of the present invention have been tested in the FLIPR assay for TRPM5 inhibiting activity, which is described in detail above.

IC50 [nM] | SMILES
180 | COc1cc(/C=N/NC(=O)CCn2cc(C)c3c(C)cccc32)ccc1OCc1cccnn1 [Example 19, 3-(3,4-Dimethyl-1H-indol-1-yl)-N′-(3-methoxy-4-(pyridazin-3-ylmethoxy)benzylidene)propanehydrazide]
1600 | COc1cc(/C=N/NC(=O)C2CC2c2ccccc2)ccc1OCc1cccnc1 (stereo not drawn) [Example 20, trans-N′-(3-Methoxy-4-(pyridin-3-ylmethoxy)benzylidene)-2-phenylcyclopropanecarbohydrazide]
60 | COc1cc(/C=N/NC(=O)CCn2cc(C)c3c(C)cccc32)ccc1OCc1cnccn1 [Example 21, 3-(3,4-Dimethyl-1H-indol-1-yl)-N′-(3-methoxy-4-(pyrazin-2-ylmethoxy)benzylidene)propanehydrazide]
160 | Cc1cc(/C=N/NC(=O)CCc2cn(C)c3ccccc23)cc2cccnc12 [Example 23, 3-(1-Methyl-1H-indol-3-yl)-N′-((8-methylquinolin-6-yl)methylene)propanehydrazide]
2000 | COc1cccc(CCC(=O)N/N=C/c2cc(C)c3ncccc3c2)n1 [Example 26, 3-(6-Methoxypyridin-2-yl)-N′-((8-methylquinolin-6-yl)methylene)propanehydrazide]
1.4 | COc1cc(/C=N/NC(=O)CCn2cc(C)c3c(C)cccc32)cc2cccnc12 [Example 27, 3-(3,4-Dimethyl-1H-indol-1-yl)-N′-((8-methoxyquinolin-6-yl)methylene)propanehydrazide]
45 | COc1cc(/C=N/NC(=O)C2CC2c2cccc(Cl)c2)cc2cccnc12 (stereo not drawn) [Example 30, trans-2-(3-Chlorophenyl)-N′-((8-methoxyquinolin-6-yl)methylene)cyclopropanecarbohydrazide]
2200 | Cc1cn(CCC(=O)N/N=C/c2ccc3nccnc3c2)c2ccccc12 [Example 32, 3-(3-Methyl-1H-indol-1-yl)-N′-(quinoxalin-6-ylmethylene)propanehydrazide]
1300 | Cc1cn(CCC(=O)N/N=C/c2ccc3ncccc3n2)c2ccccc12 [Example 33, N′-((1,5-Naphthyridin-2-yl)methylene)-3-(3-methyl-1H-indol-1-yl)propanehydrazide]
430 | Cc1cn(CCC(=O)NN=Cc2ccc3nnccc3c2)c2ccccc12 [Example 34, N′-(Cinnolin-6-ylmethylene)-3-(3-methyl-1H-indol-1-yl)propanehydrazide]
830 | Cc1cc(/C=N/NC(=O)CSc2cccc(Cl)c2)cc2cccnc12 [Example 35, 2-(3-Chlorophenylthio)-N′-((8-methylquinolin-6-yl)methylene)acetohydrazide]
810 | COc1ccc(/C=N/NC(=O)CCc2cnc3ccccc3c2)cc1OC [Example 39, N′-(3,4-dimethoxybenzylidene)-3-(quinolin-3-yl)propanehydrazide]
510 | Cc1cc(/C=N/NC(=O)C2CC2c2ccc(F)cc2)cc2cccnc12 (stereo not drawn) [Example 40, trans-2-(4-Fluorophenyl)-N′-((8-methylquinolin-6-yl)methylene)cyclopropanecarbohydrazide]
5400 | Cc1cc(/C=N/NC(=O)C2CC2c2ccc(Cl)cn2)cc2cccnc12 (stereo not drawn) [Example 43, trans-2-(5-Chloropyridin-2-yl)-N′-((8-methylquinolin-6-yl)methylene)cyclopropanecarbohydrazide]
550 | O=C(N/N=C/c1cc(F)c2ncccc2c1)C1CC1c1ccccc1 (stereo not drawn) [Example 44, trans-N′-((8-Fluoroquinolin-6-yl)methylene)-2-phenylcyclopropanecarbohydrazide]
24 | Cc1cccc2c1c(C)cn2CCC(=O)N/N=C/c1ccc2c(c1)OCCCO2 [Example 45]
6 | COc1ccc(/C=N/NC(=O)CCn2cc(C)c3c(OC)cccc32)cc1OC [Example 46, N′-(3,4-Dimethoxybenzylidene)-3-(4-methoxy-3-methyl-1H-indol-1-yl)propanehydrazide]

IC50 [nM] | SMILES
1500 | COc1ccc(/C=N/NC(=O)CCn2cc(CN(C)C)c3c(Cl)cccc32)cc1OC [Example 47, 3-(4-Chloro-3-((dimethylamino)methyl)-1H-indol-1-yl)-N′-(3,4-dimethoxybenzylidene)propanehydrazide]
9 | COc1ccc(/C=N/NC(=O)CCc2cn(C)c3c(C)cccc23)cc1OC [Example 48, N′-(3,4-Dimethoxybenzylidene)-3-(1,7-dimethyl-1H-indol-3-yl)propanehydrazide]
1.3 | COc1ccc(/C=N/NC(=O)CCn2cc(Cl)c3c(C)cccc32)cc1OC [Example 49, 3-(3-Chloro-4-methyl-1H-indol-1-yl)-N′-(3,4-dimethoxybenzylidene)propanehydrazide]
260 | COc1ccc(/C=N/NC(=O)CCn2cc(C)c3c(CO)cccc32)cc1OC [Example 50, N′-(3,4-Dimethoxybenzylidene)-3-(4-(hydroxymethyl)-3-methyl-1H-indol-1-yl)propanehydrazide]
1700 | COc1ccc(/C=N/NC(=O)C(C)S(=O)(=O)c2cccc(Cl)c2)cc1OC (stereo not drawn) [Example 51, 2-(3-Chlorophenylsulfonyl)-N′-(3,4-dimethoxybenzylidene)propanehydrazide]
2000 | COc1cc(C)c2cc(/C=N/NC(=O)CCn3cc(C)c4ccccc43)ccc2n1 [Example 52, N′-((2-Methoxy-4-methylquinolin-6-yl)methylene)-3-(3-methyl-1H-indol-1-yl)propanehydrazide]
> 30000 | COc1cnc(/C=N/NC(=O)C(C)Sc2cccc(Cl)c2)cc1OC (stereo not drawn) [Example 53, 2-(3-Chlorophenylthio)-N′-((4,5-dimethoxypyridin-2-yl)methylene)propanehydrazide]
170 | COc1ccc(/C=N/NC(=O)CCn2ccc3ccccc32)cc1OC [Example 54, N′-(3,4-dimethoxybenzylidene)-3-(1H-indol-1-yl)propanehydrazide]
660 | COc1ccc(/C=N/NC(=O)CSc2ccccc2)cc1OC [Example 55, N′-(3,4-dimethoxybenzylidene)-2-(phenylthio)acetohydrazide]
17 | COc1ccc(/C=N/NC(=O)CCn2cc(C)c3ccccc32)cc1OC [Example 56, N′-(3,4-dimethoxybenzylidene)-3-(3-methyl-1H-indol-1-yl)propanehydrazide]
12 | COc1ccc(/C=N/NC(=O)CCn2ccc3c(C)cccc32)cc1OC [Example 57, N′-(3,4-dimethoxybenzylidene)-3-(4-methyl-1H-indol-1-yl)propanehydrazide]
180 | Cc1cn(CCC(=O)N/N=C/c2ccc3c(c2)OCCCO3)c2ccccc12 [Example 58, N′-((3,4-dihydro-2H-benzo[b][1,4]di-oxepin-7-yl)methylene)-3-(3-methyl-1H-indol-1-yl)propanehydrazide]
340 | Cc1cn(CCC(=O)N/N=C/c2ccc3ncccc3c2)c2ccccc12 [Example 59, 3-(3-methyl-1H-indol-1-yl)-N′-(quinolin-6-ylmethylene)-propanehydrazide]
750 | Cc1cn(CCC(=O)N/N=C/c2ccc3c(c2)OCCN3C)c2ccccc12 [Example 60, 3-(3-methyl-1H-indol-1-yl)-N′-((4-methyl-3,4-dihydro-2H-benzo[b][1,4]-oxazin-7-yl)methylene)propanehydrazide]
210 | Cc1cnc2ccc(/C=N/NC(=O)CCn3cc(C)c4ccccc43)cc2c1 [Example 61, 3-(3-methyl-1H-indol-1-yl)-N′-((3-methylquinolin-6-yl)methylene)-propanehydrazide]
370 | Cc1ccnc2ccc(/C=N/NC(=O)CCn3cc(C)c4ccccc43)cc12 [Example 62, 3-(3-methyl-1H-indol-1-yl)-N′-((4-methylquinolin-6-yl)methylene)-propanehydrazide]
